# From paper PMC8002072, “A Novel Vasoactive Peptide “PG1” from Buffalo Ice-Cream Protects from Angiotensin-Evoked High Blood Pressure” (Antioxidants, 2021)
# Where a SMILES comes first, the peptide text is derived from it.
# Key:
# [1] = Microsomal stability assay; assay type: in vitro ADME; conditions: human microsomes 20 mg/mL stock (5 μL in 200 µL), PG1 1 mM stock (2 μL), 100 mM phosphate buffer pH 7.4, 5 min pre-incubation, NADPH, 37 °C, 60 min, LC-MS/MS; mean ± SEM; read-out: parent compound turnover percentage
# Experimental: 2 μL of PG1 peptide (1 mM) were incubated with 183 µL of 100 mM phosphate buffer (pH 7.4), and 5 μL of 20 mg/mL human microsomes (Thermo Fisher Scientific, Bremen, Germany). After pre-incubation in a water bath for 5 min, the mixture was added with 10 μL of the 20 mM NADPH at further incubated at 37 °C for 60 min. The reaction was stopped with ice-cold methanol, centrifuged at 10,000 rpm at room temperature for 5 min and analyzed by LC-MS/MS. Three controls were used: T0 reference was obtained stopping the microsomal reaction by addition of the organic solvent immediately after incubation with microsomes. As positive and negative controls were used testosterone and PG1 solution incubated without NADPH. The extent of metabolism is expressed as a percentage of the parent compound turnover using the following equation:(2) % Parent compound turnover = 100 − [concentration at 60 min/concentration at 0 min × 100]
# [2] = Serum concentration of PG1 in treated mice; assay type: in vivo; conditions: mouse, mice treated with PG1 (10 mg/Kg daily), ACN/0.1% TFA extraction, LC-MS/MS, LOQ 8.6 pM, mean ± SEM, read-out: serum concentration of pentapeptide
# Experimental: For the determination of serum concentration of pentapeptide in mice treated with PG1, blood samples were taken from the ventricle, performing a slow withdrawal to prevent the heart collapsing, to obtain a large quantity of high-quality blood. After collection, samples were rapidly centrifuged at 800 g to separate and collect serum. Extraction was conducted with ice-cold ACN plus 0.1% TFA (100 µL serum + 200 µL ACN). Samples were vortexed for 30 s and then centrifuged for 5 min at 10,000 rpm (Eppendorf Centrifuge model 5425). The supernatant was dried under nitrogen steam and reconstituted in 50:50 H2O/ACN. Calibration curve prepared by serial dilution of synthetic peptide solubilized in water in over the range 200–10 pM (y = 0.0167x + 0.7127, R^2 = 0.9998, LOD = 2.8 pM, LOQ = 8.6 pM).
# Caco-2 cell monolayers [3] = assay: Caco-2 monolayer integrity (zonulin-1 immunofluorescence) and cell vitality; assay type: cell-based, human; conditions: PG1 25 μM, 3 h; zonulin-1 expression and cell vitality (crystal violet); Figure S2
# Experimental: To evaluate the effect of PG1 peptide on colorectal adenocarcinoma (Caco-2) cells, the cells were plated in 48-well plates at a density of 36 × 10^3 cells/well. After 24 h, the Hanks’ Balanced Salt solution containing PG1 peptide at the indicated concentrations was added to the wells. The cells were examined after 3 h through microscope analysis. Finally, cells’ viability was assessed by the use of Crystal Violet Staining Solution.
# All experiments were performed in triplicate, and the relative cell viability was expressed as a percentage in comparison with the untreated control cells.
# Integrity of monolayers was evaluated at the end of transport experiments fixing the PET membranes with 4% paraformaldehyde (PFA) for 15 min after a wash with PBS. Membranes were then incubated with blocking solution (0.1% Triton, 1% BSA, 0.02% sodium azide, 50 mM ammonium chloride) for 20 min at room temperature in the dark, followed by incubation with anti-zonulin 1 antibody (#402200, Invitrogen, Thermo Fisher Scientific, Waltham, MA, USA) at 2 μg mL^−1 (RT, 2 h). […] Slides were examined under a Nikon fluorescence inverted microscope (Nikon Instruments Europe, Firenze, Italy) and analyzed as described.
# Figure S2. (A) Fluorescence micrograph of the Caco-2 cell monolayers. […]
# Original magnification 200X. […] Results are expressed as mean (± SD), and are representative of three independent experiments. […]
# [4] = test system: pancreatin (from the porcine pancreas), chymotrypsin (from bovine pancreas); assay: Enzymatic stability with digestive enzymes; assay type: in vitro ADME; conditions: chymotrypsin and bile salts, peptide/enzyme 1:10 or 1:100 w/w, 37 °C, 180 min, LC-MS/MS
# Experimental: (§1) The peptide (5 µM) was incubated for 3 h and monitored by mass spectrometry experiments. On the other hand, the assessment of PG1 enzymatic stability was performed by treating the peptide with digestive enzymes. In detail, pentapeptide was incubated with pancreatin (from the porcine pancreas), chymotrypsin (from bovine pancreas) and bile salts. Digestive reactions were carried out at 37 °C for 180 min with 1:10 or 1:100 peptide/enzyme ratio, w/w. Finally, the mixture was centrifuged at 4000× g at 4 °C for 10 min, and PG1 peptide was collected at time 0 and at the end of the experiment and then analyzed by LC-MS/MS for the mass balance calculation.
# Caco-2 cell monolayers [5] = assay: Caco-2 cell monolayers permeation experiments; assay type: in vitro ADME, human
# Experimental: (§2) The colorectal adenocarcinoma (Caco-2) cell line was purchased from ATCC (Rockville, MD, USA). Cells were cultured in DMEM high glucose (4.5 g/L) with 2 mM L-glutamine and 10% (v/v) heat-inactivated fetal bovine serum. Cells were maintained at 37 °C in a humidified 5% CO2 atmosphere. Differentiation experiments were performed in a 12-well multiwell in transwell inserts (PET membrane, 0.4 µm pore size, 0.30 cm^2 surface area), plating Caco-2 at 2.6 × 10^5 cells/cm^2 for 21 days in complete medium, changed every other day.
# (§3) The integrity of the monolayers was evaluated by means of the transepithelial electrical resistance (TEER) measurement using an EVOM2 epithelial voltohmmeter (World Precision Instruments, Sarasota, FL, USA). […] For the permeation assays, only intact monolayers with TEER higher than 300 Ω × cm^2 were used. In brief, PET membranes were washed for 15–20 min at 37 °C with pre-warmed Hank’s balanced salt solution (HBSS) buffered with 25 mM HEPES and NaHCO3 (0.35 g/L) to adjust pH at 7.4, or with 10 mM methanesulfonic acid to adjust pH at 6.5. HBSS was added both to the apical (0.3 mL) and to the basolateral (0.9 mL) transwell compartments, as previously described [22].
# (§4) For transport experiments, donor solution containing PG1 peptide was added to the apical compartment. […]
# (§5) The apparent permeability coefficient (Papp) was calculated according to the Equation (1). The donor concentration was recalculated by subtracting the cumulative amount transported to the receiver chamber for each time interval:(1) CD(ti)=CD(ti−1)−CRti−f×CRti−1×VR/VD CD (ti) and CR (ti) (μM): donor and receiver chamber concentrations calculated at each sample occasion (i) from the donor and receiver concentrations at the previous occasion CD (ti−1) and CR (ti−1), respectively; f = 1 − VS/VR: sample replacement dilution factor; VS (cm^3): sample volume; VR (cm^3): receiver chamber volume; VD (cm^3): donor chamber volume.
# [6] = Caco-2 cell monolayers permeation experiments; assay type: in vitro ADME, human; conditions: human; Caco-2 monolayers, HBSS, 180 min, UHPLC-MS/MS; read-out: efflux ratio (Papp,b/a/Papp,a/b)
# Experimental: as §2, §3, §4, §5
# [7] = Chemical stability in simulated enteric lumen; assay type: physicochemical; conditions: 5 µM peptide, 10 mM HCOONH4 pH 7.5, 37 °C, 3 h, mass spectrometry
# Experimental: In order to determine pharmacokinetic properties of a synthetic peptide, we have evaluated its chemical stability during in vitro simulated GI digestion. In detail, we have recreated the enteric lumen by alkalinization at pH = 7.5 with 10 mM HCOONH4 buffer.
# as §1
"metabolised at 1 h, 10 µM [1] [%]",level at time molar [2] [nM],Caco-2 cell monolayers integrity (Caco-2 cell monolayers [3]),enzymatic stability (hydrolysis) [4],"dependence of transmembrane uptake on proton gradient (Caco-2 cell monolayers [5]; Caco-2 monolayers, HBSS pH 7.4 or pH 6.5)",efflux ratio at 180 min [6],chemical stability [7],"apparent permeability coefficient (Papp) of monolayer control (Caco-2 cell monolayers [5]; Caco-2 monolayers 21 days, transwell, HBSS, LC-MS/MS (SRM), integrity/reference marker)",Compound
~13.2,~0.017,preserved,not hydrolysed,independent of the proton gradient,< 1,high peptide stability for up to 3 h,–,"CSCC[C@H](NC(=O)[C@@H]1CCCN1C(=O)[C@H](CCC(=O)O)NC(=O)[C@H](CCCCN)NC(=O)[C@@H](N)CCC(N)=O)C(=O)O [PG1, Gln-Lys-Glu-Pro-Met] (H-QKEPM-OH)"
–,–,–,–,–,–,–,8.05 ± 0.16 × 10^−5 cm/s,"CC(C)NCC(O)COc1cccc2ccccc12 (centres unmarked) [propranolol, reference compound]"
